Reference: ChEMBL document CHEMBL1122755, “Synthesis and murine antineoplastic activity of bis[(carbamoyloxy)methyl] derivatives of pyrrolo[2,1-a]isoquinoline” (1984)
Calls of active or inactive are those of the source. The calls are words filed in the database; no cut-off is given here.

Legend:
Mus musculus [1] = assay: % T/C value was measured against Murine P388 Lymphocytic Leukemia cells in CDF1 mice at the dose 100 mg/kg; toxic; format: functional, organism-based; parameters: dose 100 mg/kg
Mus musculus [2] = assay: % T/C value was measured against Murine P388 Lymphocytic Leukemia cells in CDF1 mice at the dose 12.5 mg/kg; format: functional
Mus musculus [3] = assay: % T/C value was measured against Murine P388 Lymphocytic Leukemia cells in CDF1 mice at the dose 25 mg/kg; format: functional
Mus musculus [4] = assay: % T/C value was measured against Murine P388 Lymphocytic Leukemia cells in CDF1 mice at the dose 50 mg/kg; format: functional
Mus musculus [5] = assay: % T/C value was measured against Murine P388 Lymphocytic Leukemia cells in CDF1 mice at the dose 6.25 mg/kg; format: functional
Mus musculus [6] = assay: Change in weight of P388 lymphocytic leukemia infected mice was determined when the compound was administered at dose of 12.5 mg/kg; format: functional
Mus musculus [7] = assay: Change in weight of P388 lymphocytic leukemia infected mice was determined when the compound was administered at dose of 25 mg/kg; format: functional
Mus musculus [8] = assay: Change in weight of P388 lymphocytic leukemia infected mice was determined when the compound was administered at dose of 50 mg/kg; format: functional
Mus musculus [9] = assay: Change in weight of P388 lymphocytic leukemia infected mice was determined when the compound was administered at dose of 6.25 mg/kg; format: functional
Mus musculus [10] = assay: % T/C value was measured against Murine P388 Lymphocytic Leukemia cells in CDF1 mice at the dose 100 mg/kg; format: functional
Mus musculus [11] = assay: % T/C value was measured against Murine P388 Lymphocytic Leukemia cells in CDF1 mice at the dose 200 mg/kg; format: functional
Mus musculus [12] = assay: Change in weight of P388 lymphocytic leukemia infected mice was determined when the compound was administered at dose of 100 mg/kg; format: functional
Mus musculus [13] = assay: Change in weight of P388 lymphocytic leukemia infected mice was determined when the compound was administered at dose of 200 mg/kg; format: functional
Mus musculus [14] = assay: % T/C value was measured against Murine P388 Lymphocytic Leukemia cells in CDF1 mice at the dose 200 mg/kg; toxic; format: functional, organism-based; parameters: dose 200 mg/kg
Mus musculus [15] = assay: % T/C value was measured against Murine P388 Lymphocytic Leukemia cells in CDF1 mice at the dose 3.13 mg/kg; format: functional
Mus musculus [16] = assay: Change in weight of P388 lymphocytic leukemia infected mice was determined when the compound was administered at dose of 3.13 mg/kg; format: functional
Mus musculus [17] = assay: % T/C value was measured against Murine P388 Lymphocytic Leukemia cells in CDF1 mice at the dose 25 mg/kg; toxic; format: functional, organism-based; parameters: dose 25 mg/kg
Mus musculus [18] = assay: % T/C value was measured against Murine P388 Lymphocytic Leukemia cells in CDF1 mice at the dose 50 mg/kg; toxic; format: functional, organism-based; parameters: dose 50 mg/kg
Homo sapiens [19] = assay: Optimum % T/C value was measured against Human MX-1 breast Xenograft at the dose of 600 mg/kg (s.c.), schedule was Q01DX03 (three doses), day 1(first dose was given, tumor was implanted on day zero); format: functional
Homo sapiens [20] = assay: Optimum % T/C value was measured against Human CX-1 colon Xenograft at the dose of 300-600mg/kg, schedule was Q01DX04 (four doses), day 1(first dose was given, tumor was implanted on day zero); IA means inactive; format: functional, organism-based
Homo sapiens [21] = assay: Optimum % T/C value was measured against Human LX-1 lung Xenograft at the dose of 150 mg/kg, schedule was Q01DX03, day 1; format: functional
Mus musculus [22] = assay: Optimum % T/C value was measured against Murine B16 melanocarcinoma cells at the dose of 12.5 mg/kg, schedule was Q01DX09, day 1; format: functional
Mus musculus [23] = assay: Optimum % T/C value was measured against Murine CD8F1 mammary cells at the dose of 250 mg/kg (subcutaneous), schedule was Q01DX01 (one dose), day 21(21 dose was given, tumor was implanted on day zero); format: functional
Mus musculus [24] = assay: Optimum % T/C value was measured against Murine L1210 lymphoid leukemia cells at the dose of 25 mg/kg, schedule was Q01DX09 (nine doses), day 1(first dose was given, tumor was implanted on day zero); format: functional
Mus musculus [25] = assay: Optimum % T/C value was measured against Murine Lewis lung carcinoma cells at the dose of 3.12-50mg/kg, schedule was Q01DX09 (nine doses), day 1(first dose was given, tumor was implanted on day zero); inactive; format: functional, organism-based
Mus musculus [26] = assay: Optimum % T/C value was measured against Murine colon 38 cells at the dose of 100 mg/kg (subcutaneous), schedule was Q01DX02 (two doses), day 2(second dose was given, tumor was implanted on day zero); format: functional, MC-38

Row | Structure (SMILES) | T/C (Mus musculus [1]) | T/C (Mus musculus [2]) | T/C (Mus musculus [3]) | T/C (Mus musculus [4]) | T/C (Mus musculus [5]) | Weight change (Mus musculus [6]) | Weight change (Mus musculus [7]) | Weight change (Mus musculus [8]) | Weight change (Mus musculus [9]) | T/C (Mus musculus [10]) | Weight change (Mus musculus [12]) | T/C (Mus musculus [14]) | T/C (Mus musculus [15]) | Weight change (Mus musculus [16]) | other results
1 | CNC(=O)OCc1c(COC(=O)NC)c(-c2ccc(OC)cc2)n(C)c1C | Toxic | 138% | 145% | 152% | 135% | -3.2 g | -3.4 g | -4.4 g | -2.4 g | – | – | – | – | – | –
2 | CNC(=O)OCc1c(COC(=O)NC)c(-c2ccccc2)n(C)c1C | Toxic | 130% | 145% | 90% | 135% | -3.3 g | -3.9 g | -4.6 g | -2.5 g | – | – | – | – | – | –
3 | CNC(=O)OCc1c(COC(=O)NC)c(-c2ccccc2)n2c1CCC2 | – | – | – | 124% | – | – | – | -2.1 g | – | 124% | -1.8 g | – | – | – | T/C (Mus musculus [11]): 60%; Weight change (Mus musculus [13]): -3.5 g
4 | CNC(=O)OCc1cn2c(c1COC(=O)NC)-c1ccccc1CC2C (stereo not drawn) | Toxic | 153% | 169% | 79% | 138% | -4.4 g | -4.8 g | -5 g | -1 g | – | – | Toxic | 138% | -0.3 g | –
5 | CCNC(=O)OCc1cn2c(c1COC(=O)NCC)-c1ccccc1CC2C (stereo not drawn) | Toxic | 185% | – | – | 141% | -6 g | – | – | -1.2 g | – | – | Toxic | 142% | -1.3 g | T/C (Mus musculus [17]): Toxic; T/C (Mus musculus [18]): Toxic
6 | CC1Cc2ccccc2-c2c(COC(=O)NC3CCCCC3)c(COC(=O)NC3CCCCC3)cn21 (stereo not drawn) | Toxic | 178% | 182% | 101% | – | -4.3% | -4.6% | -6.4% | – | – | – | Toxic | – | – | –
7 | COc1ccc2c(c1)CCn1c(C)c(COC(=O)NC(=O)NC3CCCCC3)c(COC(=O)NC(=O)NC3CCCCC3)c1-2 | – | 134% | 137% | 151% | 137% | -4.4 g | -6.7 g | -6.5 g | -3.3 g | 92% | -6 g | Toxic | – | – | –
8 | CNC(=O)OCc1c(COC(=O)NC)c(-c2ccc(OC)cc2)n2c1CCC2 | – | 132% | 132% | 131% | – | -3.2 g | -3.3 g | -4 g | – | 125% | -4 g | Toxic | – | – | –
9 | COc1ccc2c(c1)CCn1c(C)c(COC(=O)NC(C)C)c(COC(=O)NC(C)C)c1-2 | Toxic | 153% | 153% | – | 136% | -3 g | -5.6 g | – | -2.1 g | – | – | Toxic | 142% | -1.1 g | T/C (Homo sapiens [19]): -100%; T/C (Homo sapiens [20]): inactive; T/C (Homo sapiens [21]): 55%; T/C (Mus musculus [18]): Toxic; T/C (Mus musculus [22]): 180%; T/C (Mus musculus [23]): -27%; T/C (Mus musculus [24]): 152%; T/C (Mus musculus [25]): inactive; T/C (Mus musculus [26]): 48%
